Experiments:
CDK2/cyclin A = target: T1, CDK2/cyclin A (Homo sapiens, UniProt P24941); assay: Inhibition of CDK2/cyclin A retinoblastoma kinase activity (Ki; % inhibition); assay type: biochemical; settings: 0.03 μM compound
T1 construct: made in house; host or cells: CDK2: insect cells (baculovirus); cyclin A: E. coli
In short: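 Radiometric filter assay of CDK2/proteolyzed cyclin A (baculovirus-expressed human CDK2, 10 or 19 nM) phosphorylating an Rb fragment with 25 μM [³²P/³³P]ATP in pH 7.4 HEPES, 2% DMSO, at 30 °C for 60 or 75 min under initial-rate conditions. Library compounds screened at 30 nM for % inhibition; apparent Ki from concentration series fit to competitive or tight-binding inhibition equations.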

HCT-116 cell line = assay: Inhibition of cell growth, MTT tetrazolium salt assay; assay type: cell-based; settings: HCT-116 cells; for HCT-116 % Inhibition at 0.1 μM: 0.1 μM compound; for HCT-116 % Inhibition at 0.25 μM: 0.25 μM compound
In short: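 Growth inhibition was read as MTT-formazan absorbance at 540 nm, after 4 h with 0.2 mg/mL MTT. Before that, HCT-116 cells had been exposed 3–5 days at 37 °C to compounds in 0.5% (v/v) DMSO, added 4 h after plating. 50% and 90% inhibitory concentrations were taken from semi-log concentration–inhibition plots versus vehicle controls.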

human CDK4/cyclin D3 = target: T2, human CDK4/cyclin D3 (Homo sapiens, UniProt P11802); assay: Inhibition of CDK4/cyclin D retinoblastoma kinase activity (Ki; % inhibition); assay type: biochemical; settings: 0.03 μM compound
T2 construct: made in house; host or cells: insect cells co-infected with baculovirus vectors
T2 sequence (P11802 whole entry): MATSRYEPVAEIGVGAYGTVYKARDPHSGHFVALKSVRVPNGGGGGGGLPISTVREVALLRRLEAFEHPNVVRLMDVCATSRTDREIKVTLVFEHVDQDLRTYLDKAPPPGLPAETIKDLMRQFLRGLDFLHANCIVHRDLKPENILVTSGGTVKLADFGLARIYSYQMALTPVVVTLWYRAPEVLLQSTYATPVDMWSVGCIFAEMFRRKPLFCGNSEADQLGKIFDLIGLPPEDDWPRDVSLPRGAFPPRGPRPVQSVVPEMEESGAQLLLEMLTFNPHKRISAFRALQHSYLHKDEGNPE
T2 sequence (P30281 1-264 partner limits assumed): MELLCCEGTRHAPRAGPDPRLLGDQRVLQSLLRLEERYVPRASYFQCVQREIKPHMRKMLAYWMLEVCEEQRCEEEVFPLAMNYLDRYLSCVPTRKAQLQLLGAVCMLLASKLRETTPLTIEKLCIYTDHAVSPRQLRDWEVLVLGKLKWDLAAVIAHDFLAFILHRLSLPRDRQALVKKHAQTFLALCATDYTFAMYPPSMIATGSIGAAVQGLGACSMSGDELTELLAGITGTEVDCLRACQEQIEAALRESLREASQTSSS
In short: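 Insect-cell-expressed CDK4 with truncated cyclin D3 (1-264), 5 nM, phosphorylating His-tagged Rb fragment (386-928) with 25 μM [32/33P]ATP at pH 7.4, 30 °C, 20 min (60 min for tight binders). Filter capture, phosphorimager read; % inhibition at 30 nM compound, Ki from competitive or tight-binding fits.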

SMILES	CDK2 % Inhibition at 0.03 μM (CDK2/cyclin A)	HCT-116 % Inhibition at 0.1 μM (HCT-116 cell line)	HCT-116 % Inhibition at 0.25 μM (HCT-116 cell line)	CDK4 % Inhibition at 0.03 μM (human CDK4/cyclin D3)
CN(Cc1ccco1)C(=O)c1ccc(Nc2nc(N)c(C(=O)c3c(F)cccc3F)s2)cc1 [Example G307]	−3%	8%	54%	12%
Cc1cccc(N2CCN(C(=O)c3ccc(Nc4nc(N)c(C(=O)c5c(F)cccc5F)s4)cc3)CC2C)c1 (centres unmarked) [Example G308]	−23%	5%	60%	5%
Nc1nc(Nc2ccc(C(=O)NCc3cc(F)ccc3F)cc2)sc1C(=O)c1c(F)cccc1F [Example G309]	17%	5%	65%	30%
CC(=O)c1ccc(NC(=O)c2ccc(Nc3nc(N)c(C(=O)c4c(F)cccc4F)s3)cc2)cc1 [Example G310]	−5%	14%	53%	10%
Nc1nc(Nc2ccc(C(=O)N3CCN(c4ccncc4)CC3)cc2)sc1C(=O)c1c(F)cccc1F [Example G311]	−1%	5%	43%	46%
CCN(C(=O)c1ccc(Nc2nc(N)c(C(=O)c3c(F)cccc3F)s2)cc1)C1CCCCC1 [Example G312]	−10%	8%	58%	5%
CCOc1ccc(NC(=O)c2ccc(Nc3nc(N)c(C(=O)c4c(F)cccc4F)s3)cc2)cc1 [Example G313]	11%	10%	57%	12%
CCCCN(CCCC)C(=O)c1ccc(Nc2nc(N)c(C(=O)c3c(F)cccc3F)s2)cc1 [Example G314]	−7%	9%	47%	0%
Cc1cccc(CN(C)C(=O)c2ccc(Nc3nc(N)c(C(=O)c4c(F)cccc4F)s3)cc2)n1 [Example G315]	−1%	7%	50%	11%
N#CCCN(Cc1cccnc1)C(=O)c1ccc(Nc2nc(N)c(C(=O)c3c(F)cccc3F)s2)cc1 [Example G316]	−2%	1%	56%	11%
Nc1nc(Nc2ccc(C(=O)NCc3ccc(F)c(F)c3)cc2)sc1C(=O)c1c(F)cccc1F [Example G317]	27%	27%	87%	33%
Nc1nc(Nc2ccc(C(=O)N[C@H](CO)Cc3ccccc3)cc2)sc1C(=O)c1c(F)cccc1F [Example G318]	−14%	16%	48%	1%
COc1ccc(OC)c(CCNC(=O)c2ccc(Nc3nc(N)c(C(=O)c4c(F)cccc4F)s3)cc2)c1 [Example G319]	−5%	17%	54%	14%
C=CCN(C(=O)c1ccc(Nc2nc(N)c(C(=O)c3c(F)cccc3F)s2)cc1)C1CCCCC1 [Example G320]	−15%	12%	46%	5%
N#CCc1ccc(NC(=O)c2ccc(Nc3nc(N)c(C(=O)c4c(F)cccc4F)s3)cc2)cc1 [Example G321]	1%	11%	51%	19%
CCCN(CCc1ccccn1)C(=O)c1ccc(Nc2nc(N)c(C(=O)c3c(F)cccc3F)s2)cc1 [Example G322]	−12%	13%	50%	4%
N#CCCNc1ccccc1NC(=O)c1ccc(Nc2nc(N)c(C(=O)c3c(F)cccc3F)s2)cc1 [Example G323]	−14%	14%	72%	7%
Nc1nc(Nc2ccc(C(=O)NCc3cccc(Cl)c3)cc2)sc1C(=O)c1c(F)cccc1F [Example G324]	28%	5%	60%	26%

SMILES	CDK2 % Inhibition at 0.03 μM (CDK2/cyclin A)	HCT-116 % Inhibition at 0.1 μM (HCT-116 cell line)	HCT-116 % Inhibition at 0.25 μM (HCT-116 cell line)	CDK4 % Inhibition at 0.03 μM (human CDK4/cyclin D3)
Nc1nc(Nc2ccc(C(=O)NCCCc3ccccc3)cc2)sc1C(=O)c1c(F)cccc1F [Example G325]	13%	6%	51%	23%
Nc1nc(Nc2ccc(C(=O)NCCO)cc2)sc1C(=O)c1c(F)cccc1F [Example G326]	12%	11%	13%	22%
CC[C@H](C)[C@@H](CO)NC(=O)c1ccc(Nc2nc(N)c(C(=O)c3c(F)cccc3F)s2)cc1 [Example G327]	−7%	8%	55%	11%
Nc1nc(Nc2ccc(C(=O)Nc3ccc(CCO)cc3)cc2)sc1C(=O)c1c(F)cccc1F [Example G328]	19%	33%	89%	29%
CCCCC(CO)NC(=O)c1ccc(Nc2nc(N)c(C(=O)c3c(F)cccc3F)s2)cc1 (centres unmarked) [Example G329]	10%	9%	56%	19%
Cc1cc(NC(=O)c2ccc(Nc3nc(N)c(C(=O)c4c(F)cccc4F)s3)cc2)ccc1F [Example G330]	−1%	2%	55%	12%
CCCCN(CC)CCNC(=O)c1ccc(Nc2nc(N)c(C(=O)c3c(F)cccc3F)s2)cc1 [Example G331]	1%	54%	93%	37%
COc1cccc(CNC(=O)c2ccc(Nc3nc(N)c(C(=O)c4c(F)cccc4F)s3)cc2)c1OC [Example G332]	17%	21%	66%	14%
CC(C)C[C@@H](CO)NC(=O)c1ccc(Nc2nc(N)c(C(=O)c3c(F)cccc3F)s2)cc1 [Example G333]	−16%	4%	51%	−5%
Nc1nc(Nc2ccc(C(=O)NCCCO)cc2)sc1C(=O)c1c(F)cccc1F [Example G334]	−2%	6%	41%	8%
CC(C)NC(=O)CN1CCN(C(=O)c2ccc(Nc3nc(N)c(C(=O)c4c(F)cccc4F)s3)cc2)CC1 [Example G335]	2%	3%	42%	21%
Nc1nc(Nc2ccc(C(=O)NCc3ccc(Cl)c(Cl)c3)cc2)sc1C(=O)c1c(F)cccc1F [Example G336]	36%	12%	51%	36%
Nc1nc(Nc2ccc(C(=O)NCCC3=CCCCC3)cc2)sc1C(=O)c1c(F)cccc1F [Example G337]	7%	13%	52%	11%
Cc1ccc(CNC(=O)c2ccc(Nc3nc(N)c(C(=O)c4c(F)cccc4F)s3)cc2)cc1C [Example G338]	31%	18%	54%	27%
Nc1nc(Nc2ccc(C(=O)NCCCN(CCO)CCO)cc2)sc1C(=O)c1c(F)cccc1F [Example G339]	6%	9%	48%	34%
CCCCN(CCCCO)C(=O)c1ccc(Nc2nc(N)c(C(=O)c3c(F)cccc3F)s2)cc1 [Example G340]	−12%	28%	40%	9%
Nc1nc(Nc2ccc(C(=O)Nc3ccc(Cl)cc3CO)cc2)sc1C(=O)c1c(F)cccc1F [Example G341]	−11%	23%	93%	10%

From US6720346B2, “Thiazole benzamide derivatives and pharmaceutical compositions for inhibiting cell proliferation” (Agouron Pharmaceuticals, Inc., priority 2001, dated 2004)
